# Reference: patent publication US20110130425A1, “Use of H3 Histaminergic Agonists for the Treatment of Addiction to Drugs of Abuse” (priority 2009, published 2011)
# “Also recorded” adds a separate entry of the source.
# What was measured:
# [1] = test system: reinforcing effects of methamphetamine; conditions: rat self-administration model; Munzar et al., 2004; cited from earlier work
# cocaine craving = experiment: Extinction phase: cocaine craving (lever pressing with drug no longer available); format: in vivo, rat
# Excerpt: II. Extinction Phase: In this phase, the drug ceases to be available to the rats. During the extinction session, the animal learns, suddenly, that the drug can no longer be obtained by pressing the lever, which directs the rat toward an initial impulse of drug seeking. During the extinction session, one estimates the degree of the irrepressible desire of the rat for the drug (craving). After repeated extinction sessions, animals learn to reduce lever pressing and are ready for relapse testing.
# Training was conducted in Skinner cages. Rats were trained to tap a lever to obtain saccharose. […] Once the training to obtain saccharose was complete, the rats had access to food ad libitum during the rest of the procedure. An intravenous catheter was subsequently implanted in the jugular vein. The catheter passed underneath the skin to reach the shoulder of the animal, where it was secured with a surgical gauze.
# After 3-4 days of recovery, the animals were subjected, in the Skinner cages, to daily sessions of intravenous self-administration of 0.5 mg/kg doses of cocaine each time that they pressed an active lever. […] When this second lever was pressed by the animal, no drug was administered. The self-administration sessions lasted for 2 hours a day, 5 days a week, for at least six weeks.
# The third self-administration protocol required the animals to press the lever five times to obtain the cocaine reinforcement.
# Rats that succeeded in learning to self-administer the drug according to all three protocols described above were selected to test out the efficiency of the treatment with H3 histaminergic agonists in the extinction and relapse phases.
# Drug craving, in this particular case cocaine craving, associated with the unexpected commencement of the extinction phase was studied once the animals had been self-administering the drug daily for at least six weeks.
# The experiments began with the self-administration of cocaine for one hour. After this initial self-administration, the rats were divided into two groups. […]
# [2] = test system: cocaine self-administration; experiment: Same protocol with lever pressing rewarded with drug during the second hour (resumption of self-administration); format: in vivo, rat
# Protocol: In order to differentiate the drug seeking from the reward phenomenon, the same protocol as described above was used, with the proviso that the pressing of the lever was rewarded with drug during the second hour. In the control experiments, when the rats were treated with saline solution, a relatively stable pressing of the lever over the course of time was observed (FIG. 3).
# These same rats, days afterwards, were subjected in random order to treatment with saline solution or imetit in doses of 10 mg/kg. After these treatments, the rats recovered stability by means of three sessions of self-administration of drug. […] This decrease was significant for the first 40 minutes of the self-administration period, as compared to the control rats that were pretreated with a saline solution. Thus, over the course of time, the desire for the drug reappeared.
# [3] = test system: reinforcement produced by cocaine; experiment: Reinforcement phase: cocaine self-administration dose/response; format: in vivo, rat; conditions: rats
# [4] = test system: relapse into cocaine seeking; experiment: Relapse phase: rehabilitation test, relapse induced by a single dose of cocaine; format: in vivo, rat; conditions: rats
# Excerpt: III. Relapse Phase: The relapse phase is studied by using a rehabilitation test. In this phase, the desire of the rats for the drug is again induced by the administration of a single dose of drug. At this instant, the rat again feels the desire to obtain the drug, and so it again begins to press on the lever to obtain the drug, but the drug is not available to the animal.
# The behavior of the rats was also studied during the relapse phase, after the animals had gone through the extinction phase. In the extinction phase, the animals received no reward (dose of cocaine) when they pressed the lever. After a minimum of six extinction sessions, lasting 2 hours each session, carried out on consecutive days, the lever-pressing behavior of the rats diminished at least 20 times in comparison to the start of the extinction sessions.
# When the number of times that the rats pressed the lever decreased, the animals were subjected to 4 hour rehabilitation sessions (i.e., relapse sessions). These rehabilitation sessions consisted initially of extinction sessions of 3 hours, followed by the automatic release, by an injection, of a saline solution or different doses of cocaine. During the fourth hour, the behavior of the animals was studied in regard to the number of times that they pressed the lever after the administration of the different doses of cocaine (0 mg/kg, 0.5 mg/kg and 2 mg/kg). The number of times that the lever was pressed increased in proportion to the dose of cocaine administered (cocaine at 0.5 mg/kg or 2 mg/kg administered intravenously, or saline in controls) (FIG. 8). However, this increase in the number of times that the animals pressed the lever was not rewarded with the administration of more cocaine. The number of times that the rats pressed the lever was indicative of the rat's need to find the drug. Even so, the pressing of the lever was not rewarded with more cocaine, which differentiates this stage from that corresponding to self-administration. […]
SMILES,reinforcing effects of methamphetamine [1],"tapping of the lever in the first 20 minutes of extinction (cocaine craving; imetit 3 mg/kg i.v. single dose, vs control rats)","latency (time until the rats pressed the lever for the first time) at start of extinction (cocaine craving; imetit 10 mg/kg i.v. single dose, vs control)","impulsiveness in tapping the lever to obtain reward in the first 20 minutes of extinction (cocaine craving; imetit 10 mg/kg i.v. single dose, vs control rats)","latency (time until first lever press) on resumption of self-administration ([2]; imetit 10 mg/kg i.v. pretreatment, vs control, rats)","decrease in number of times the rats tapped the lever during the start of the self-administration phase ([2]; imetit 10 mg/kg pretreatment, vs saline)","period of the self-administration phase over which the decrease in lever tapping was significant ([2]; imetit 10 mg/kg pretreatment, vs saline, rats)","tendency to seek cocaine (self-injections in 2 hours) ([3]; imetit 3 mg/kg single dose one hour before reinforcement, even at 0.03 mg/kg cocaine)","lever pressing after relapse induced by a single dose of cocaine ([4]; imetit 3 mg/kg one hour before, cocaine 0.5 mg/kg, vs saline)","reinforcement produced by cocaine (self-injections in 2 hours) ([3]; thioperamide 3 mg/kg s.c. one hour before, cocaine 0-1.0 mg/kg per injection)","lever pressing after relapse induced by a reminder dose of cocaine ([4]; thioperamide 3 mg/kg s.c. or 6 mg/kg, one hour before, cocaine 0.5 or 2 mg/kg)"
NC(=NCc1ccc(Cl)cc1)SCCCc1cnc[nH]1 [clobenpropit],potentiate the reinforcing effects,,,,,,,,,,
N=C(N)SCCc1cnc[nH]1 [imetit],,did not cause a significant reduction,significantly increased; also recorded: increase in latency,significantly diminished,significantly increased,approximately 50%,40 min,diminished the tendency to seek cocaine; also recorded: self-administer less cocaine,caused a decrease in the pressing on the lever; also recorded: diminished significantly,,
S=C(NC1CCCCC1)N1CCC(c2cnc[nH]2)CC1 [thioperamide],potentiate the reinforcing effects,,,,,,,,,no significant increase,did not potentiate the rehabilitation; also recorded: does not produce a significant decline
